We go through one molecule from article PMC5218480 (PLoS ONE, 2017).

SMILES strings stand for the structures.

The test system of this test is MV-4-11 cells. Kind of test: Gene expression microarray analysis (Affymetrix PrimeView) and GSEA. The note with it: MV-4-11 cells, 48 hours. The test is classed as cell-based, human. Further details: RFU PODN (11730768_x_at) / Fold change /veh PODN (11730768_x_at) / RFU LINC00158 (11744669_a_at) / Fold change /veh LINC00158 (11744669_a_at) / RFU DUSP10 (11751237_a_at) / Fold change /veh DUSP10 (11751237_a_at) / RFU ID3 (11757404_x_at) / Fold change /veh ID3 (11757404_x_at) / RFU PLEKHG5 (11737974_s_at) / Fold change /veh PLEKHG5 (11737974_s_at) / RFU LRRC4B (11730491_at) / Fold change /veh LRRC4B (11730491_at) / RFU GIMAP4 (11747438_a_at) / Fold change /veh GIMAP4 (11747438_a_at) / RFU KRT8 (11758183_x_at) / Fold change /veh KRT8 (11758183_x_at) / RFU CNN1 (11734310_a_at) / Fold change /veh CNN1 (11734310_a_at) / RFU VPS37D (11726825_at) / Fold change /veh VPS37D (11726825_at) / RFU C10orf10 (11716522_x_at) / Fold change /veh C10orf10 (11716522_x_at) / RFU KIR2DL2 /// KIR2DL4 /// KIR2DL5A /// KIR2DL5B /// KIR2DS1 /// KIR2DS2 /// KIR2DS3 /// KIR2DS4 /// KIR3DL3 /// KIR3DL3 /// KIR3DS1 (11738374_at) / Fold change /veh KIR2DL2 /// KIR2DL4 /// KIR2DL5A /// KIR2DL5B /// KIR2DS1 /// KIR2DS2 /// KIR2DS3 /// KIR2DS4 /// KIR3DL3 /// KIR3DL3 /// KIR3DS1 (11738374_at) / RFU C1QL1 (11718748_at) / Fold change /veh C1QL1 (11718748_at) / RFU TMPRSS4 (11747572_a_at) / Fold change /veh TMPRSS4 (11747572_a_at) / RFU HAMP (11756126_x_at) / Fold change /veh HAMP (11756126_x_at) / RFU RNFT2 (11725882_a_at) / Fold change /veh RNFT2 (11725882_a_at) / RFU NR4A2 (11747474_a_at) / Fold change /veh NR4A2 (11747474_a_at) / RFU ABCC12 (11746883_a_at) / Fold change /veh ABCC12 (11746883_a_at) / RFU TMEM136 (11760407_x_at) / Fold change /veh TMEM136 (11760407_x_at) / RFU CLDN22 /// WWC2 (11732394_at) / Fold change /veh CLDN22 /// WWC2 (11732394_at) / RFU HLA-DPB1 (11760878_x_at) / Fold change /veh HLA-DPB1 (11760878_x_at) / RFU SPINT1 (11716480_a_at) / Fold change /veh SPINT1 (11716480_a_at) / RFU GAP43 (11754022_s_at) / Fold change /veh GAP43 (11754022_s_at) / RFU A4GNT (11735810_at) / Fold change /veh A4GNT (11735810_at) / RFU PRB3 (11715151_x_at) / Fold change /veh PRB3 (11715151_x_at) / RFU TUBB4B (11761932_at) / Fold change /veh TUBB4B (11761932_at) / RFU CAPN14 (11732068_a_at) / Fold change /veh CAPN14 (11732068_a_at) / RFU TMCC2 (11721928_a_at) / Fold change /veh TMCC2 (11721928_a_at) / RFU IRGQ (11745062_a_at) / Fold change /veh IRGQ (11745062_a_at) / RFU FAM174B (11720279_a_at) / Fold change /veh FAM174B (11720279_a_at) / RFU TMPRSS4 (11748680_a_at) / Fold change /veh TMPRSS4 (11748680_a_at) / RFU FAM212B (11763350_a_at) / Fold change /veh FAM212B (11763350_a_at) / RFU PLEKHG5 (11743358_a_at) / Fold change /veh PLEKHG5 (11743358_a_at) / RFU ZSCAN30 (11745921_a_at) / Fold change /veh ZSCAN30 (11745921_a_at) / RFU CMKLR1 (11741424_a_at) / Fold change /veh CMKLR1 (11741424_a_at) / RFU LOC101060620 /// MAPK8IP1 (11723275_at) / Fold change /veh LOC101060620 /// MAPK8IP1 (11723275_at) / RFU SPTSSB (11747773_x_at) / Fold change /veh SPTSSB (11747773_x_at) / RFU PRSS12 (11739890_at) / Fold change /veh PRSS12 (11739890_at) / RFU BIN1 (11741810_x_at) / Fold change /veh BIN1 (11741810_x_at) / RFU WNT11 (11732464_a_at) / Fold change /veh WNT11 (11732464_a_at) / RFU C10orf10 (11716521_a_at) / Fold change /veh C10orf10 (11716521_a_at) / RFU C5orf56 (11738089_at) / Fold change /veh C5orf56 (11738089_at) / RFU CYB561 (11721691_x_at) / Fold change /veh CYB561 (11721691_x_at) / RFU ANKRD19P (11752326_a_at) / Fold change /veh ANKRD19P (11752326_a_at) / RFU OR2T12 /// OR2T33 /// OR2T8 (11738714_s_at) / Fold change /veh OR2T12 /// OR2T33 /// OR2T8 (11738714_s_at) / RFU VCAN (11748164_a_at) / Fold change /veh VCAN (11748164_a_at) / RFU JSRP1 (11732532_at) / Fold change /veh JSRP1 (11732532_at) / RFU KRTAP10-11 (11738290_x_at) / Fold change /veh KRTAP10-11 (11738290_x_at) / RFU MYO3A (11730013_a_at) / Fold change /veh MYO3A (11730013_a_at) / RFU EBF3 (11725865_a_at) / Fold change /veh EBF3 (11725865_a_at) / RFU CAMK2N1 (11719241_x_at) / Fold change /veh CAMK2N1 (11719241_x_at) / RFU C5orf56 (11738088_a_at) / Fold change /veh C5orf56 (11738088_a_at) / RFU OLFML3 (11715873_a_at) / Fold change /veh OLFML3 (11715873_a_at) / RFU LOC100653217 /// NTM (11731650_a_at) / Fold change /veh LOC100653217 /// NTM (11731650_a_at) / RFU MAPK11 (11762145_a_at) / Fold change /veh MAPK11 (11762145_a_at) / RFU FIZ1 (11724087_x_at) / Fold change /veh FIZ1 (11724087_x_at) / RFU OASL (11726364_x_at) / Fold change /veh OASL (11726364_x_at) / RFU SOX15 (11748057_x_at) / Fold change /veh SOX15 (11748057_x_at) / RFU CD79A (11719716_a_at) / Fold change /veh CD79A (11719716_a_at) / RFU HIST1H1D (11736915_at) / Fold change /veh HIST1H1D (11736915_at) / RFU CASKIN2 (11723855_a_at) / Fold change /veh CASKIN2 (11723855_a_at) / RFU LOC730098 (11760151_x_at) / Fold change /veh LOC730098 (11760151_x_at) / RFU OR4N2 (11742367_at) / Fold change /veh OR4N2 (11742367_at) / RFU PRRT2 (11749266_a_at) / Fold change /veh PRRT2 (11749266_a_at) / RFU SNX32 (11753110_a_at) / Fold change /veh SNX32 (11753110_a_at) / RFU CDHR5 (11726645_a_at) / Fold change /veh CDHR5 (11726645_a_at) / RFU RCAN1 (11760418_a_at) / Fold change /veh RCAN1 (11760418_a_at) / RFU FAM167A (11723789_a_at) / Fold change /veh FAM167A (11723789_a_at) / RFU FAM26E (11764081_at) / Fold change /veh FAM26E (11764081_at) / RFU ISYNA1 (11749810_s_at) / Fold change /veh ISYNA1 (11749810_s_at) / RFU ACY1 (11761880_at) / Fold change /veh ACY1 (11761880_at) / RFU 11764098_at / Fold change /veh 11764098_at / RFU SAMD14 (11745864_x_at) / Fold change /veh SAMD14 (11745864_x_at) / RFU NPB (11741838_a_at) / Fold change /veh NPB (11741838_a_at) / RFU TMPRSS6 (11731388_a_at) / Fold change /veh TMPRSS6 (11731388_a_at) / RFU KRTAP10-2 (11738614_at) / Fold change /veh KRTAP10-2 (11738614_at) / RFU ARHGAP8 /// PRR5-ARHGAP8 (11727945_x_at) / Fold change /veh ARHGAP8 /// PRR5-ARHGAP8 (11727945_x_at) / RFU KRTAP5-7 /// NADSYN1 (11734609_at) / Fold change /veh KRTAP5-7 /// NADSYN1 (11734609_at) / RFU RASL12 (11751679_a_at) / Fold change /veh RASL12 (11751679_a_at) / RFU CDKN2B (11736163_a_at) / Fold change /veh CDKN2B (11736163_a_at) / RFU PRF1 (11729649_at) / Fold change /veh PRF1 (11729649_at) / RFU, ZNF638 /// ZNF638-IT1 / Fold change vs veh, ZNF638 /// ZNF638-IT1 / RFU, PANK3 / Fold change vs veh, PANK3 / RFU, SH3YL1 / Fold change vs veh, SH3YL1 / RFU, ZEB2 / Fold change vs veh, ZEB2 / RFU, NRIP1 / Fold change vs veh, NRIP1 / RFU, PTTG1IP / Fold change vs veh, PTTG1IP / RFU, CAPN2 / Fold change vs veh, CAPN2 / RFU, MED14 / Fold change vs veh, MED14 / RFU, SNORA58 / Fold change vs veh, SNORA58 / RFU, C1orf63 / Fold change vs veh, C1orf63 / RFU, LRRFIP1 / Fold change vs veh, LRRFIP1 / RFU, NDUFAF7 / Fold change vs veh, NDUFAF7 / RFU, SLC12A2 / Fold change vs veh, SLC12A2 / RFU, IBTK / Fold change vs veh, IBTK / RFU, ESF1 / Fold change vs veh, ESF1 / Fold change vs veh, TMEM50B / RFU, TAOK1 / Fold change vs veh, TAOK1 / RFU, ACBD3 / Fold change vs veh, ACBD3 / RFU, TMA16 / Fold change vs veh, TMA16 / RFU, RWDD3 / Fold change vs veh, RWDD3 / RFU, BCAT1 / Fold change vs veh, BCAT1 / RFU, EDEM3 / Fold change vs veh, EDEM3 / RFU, TMEM33 / Fold change vs veh, TMEM33 / RFU, WDR75 / Fold change vs veh, WDR75 / RFU, AHCTF1 / Fold change vs veh, AHCTF1 / RFU, TFRC / Fold change vs veh, TFRC / RFU, ZDHHC17 / Fold change vs veh, ZDHHC17 / RFU, NOM1 / Fold change vs veh, NOM1 / RFU, ARL8B / Fold change vs veh, ARL8B / RFU, ZBTB11 / Fold change vs veh, ZBTB11 / RFU, TAMM41 / Fold change vs veh, TAMM41 / RFU, KIAA1704 /// LOC100996395 / Fold change vs veh, KIAA1704 /// LOC100996395 / RFU, ING1 / Fold change vs veh, ING1 / RFU, TRMT61B / Fold change vs veh, TRMT61B / RFU, FUBP3 / Fold change vs veh, FUBP3 / RFU, TP53 / Fold change vs veh, TP53 / RFU, TNKS2 / Fold change vs veh, TNKS2 / RFU, ZFP14 / Fold change vs veh, ZFP14 / RFU, ACTR2 / Fold change vs veh, ACTR2 / RFU, PPP3R1 / Fold change vs veh, PPP3R1 / RFU, PIK3R1 / Fold change vs veh, PIK3R1 / RFU, HNRNPA1 / Fold change vs veh, HNRNPA1 / RFU, RNF170 / Fold change vs veh, RNF170 / RFU, ZNF28 / Fold change vs veh, ZNF28 / RFU, RNGTT / Fold change vs veh, RNGTT / RFU, OGT / Fold change vs veh, OGT / RFU, BRD1 / Fold change vs veh, BRD1 / RFU, MARS / Fold change vs veh, MARS / RFU, ZNF655 / Fold change vs veh, ZNF655 / RFU, FAHD1 / Fold change vs veh, FAHD1 / RFU, BDP1 / Fold change vs veh, BDP1 / RFU, LRRCC1 / Fold change vs veh, LRRCC1 / RFU, ARID1A / Fold change vs veh, ARID1A / RFU, ZNF146 / Fold change vs veh, ZNF146 / RFU, ZNF330 / Fold change vs veh, ZNF330 / RFU, GPN3 / Fold change vs veh, GPN3 / RFU, C9orf123 / Fold change vs veh, C9orf123 / RFU, N4BP2L2 / Fold change vs veh, N4BP2L2 / RFU, ARFIP1 / Fold change vs veh, ARFIP1 / RFU, FAM179B / Fold change vs veh, FAM179B / RFU, BCL10 / Fold change vs veh, BCL10 / RFU, UHRF1BP1L / Fold change vs veh, UHRF1BP1L / RFU, BET1 / Fold change vs veh, BET1 / RFU, CNOT2 / Fold change vs veh, CNOT2 / RFU, ZNF268 / Fold change vs veh, ZNF268 / Fold change vs veh, ZNF507 / RFU, DGCR2 / Fold change vs veh, DGCR2 / RFU, WDSUB1 / Fold change vs veh, WDSUB1 / Fold change vs veh, HSP90B1 /// MIR3652 / RFU, ADSS / Fold change vs veh, ADSS / RFU, GK / Fold change vs veh, GK / RFU, ZNF148 / Fold change vs veh, ZNF148 / RFU, TAF9 / Fold change vs veh, TAF9 / RFU, SLC1A5 / Fold change vs veh, SLC1A5 / RFU, SLMO2 / Fold change vs veh, SLMO2 / RFU, ABCC4 / Fold change vs veh, ABCC4 / RFU, LOC101060439 /// RAP1B / Fold change vs veh, LOC101060439 /// RAP1B / RFU, RFX7 / Fold change vs veh, RFX7 / RFU, GTPBP10 / Fold change vs veh, GTPBP10 / RFU, CNEP1R1 / Fold change vs veh, CNEP1R1 / RFU, BIVM-ERCC5 /// ERCC5 / Fold change vs veh, BIVM-ERCC5 /// ERCC5 / RFU, ILF3 / Fold change vs veh, ILF3 / RFU 11762660_at / Fold change /veh 11762660_at / RFU VCAN (11757783_s_at) / Fold change /veh VCAN (11757783_s_at) / RFU DDX43 (11728927_at) / Fold change /veh DDX43 (11728927_at) / RFU KRT8 (11758188_x_at) / Fold change /veh KRT8 (11758188_x_at) / RFU NKD1 (11759106_at) / Fold change /veh NKD1 (11759106_at) / RFU SRD5A1 (11742802_a_at) / Fold change /veh SRD5A1 (11742802_a_at) / RFU TPSAB1 /// TPSB2 (11721975_s_at) / Fold change /veh TPSAB1 /// TPSB2 (11721975_s_at) / RFU GSTM3 (11746129_a_at) / Fold change /veh GSTM3 (11746129_a_at) / RFU IL23R (11737362_x_at) / Fold change /veh IL23R (11737362_x_at) / RFU TMEM51 (11727254_a_at) / Fold change /veh TMEM51 (11727254_a_at) / RFU PIWIL2 (11732686_x_at) / Fold change /veh PIWIL2 (11732686_x_at) / RFU ORM1 (11744905_x_at) / Fold change /veh ORM1 (11744905_x_at) / RFU CCDC152 (11743942_at) / Fold change /veh CCDC152 (11743942_at) / RFU ECM1 (11717891_a_at) / Fold change /veh ECM1 (11717891_a_at) / RFU IL23R (11748794_a_at) / Fold change /veh IL23R (11748794_a_at) / RFU TNFAIP8L3 (11732012_x_at) / Fold change /veh TNFAIP8L3 (11732012_x_at) / RFU MBOAT4 (11741988_at) / Fold change /veh MBOAT4 (11741988_at) / RFU 11764193_at / Fold change /veh 11764193_at / RFU TMEM53 (11763286_at) / Fold change /veh TMEM53 (11763286_at) / RFU MAGEB2 (11727129_at) / Fold change /veh MAGEB2 (11727129_at) / RFU TMEM200A (11744735_a_at) / Fold change /veh TMEM200A (11744735_a_at) / RFU CCDC152 (11751479_a_at) / Fold change /veh CCDC152 (11751479_a_at) / RFU FAM211A (11726209_a_at) / Fold change /veh FAM211A (11726209_a_at) / RFU RGS16 (11746705_a_at) / Fold change /veh RGS16 (11746705_a_at) / RFU VCAN (11755009_s_at) / Fold change /veh VCAN (11755009_s_at) / RFU RHOB (11743442_s_at) / Fold change /veh RHOB (11743442_s_at) / RFU RGS16 (11720943_a_at) / Fold change /veh RGS16 (11720943_a_at) / RFU RGS16 (11720944_at) / Fold change /veh RGS16 (11720944_at) / RFU, VPS4B / Fold change vs veh, VPS4B / RFU, CREB1 / Fold change vs veh, CREB1 / RFU, DNAJC13 / Fold change vs veh, DNAJC13 / RFU, GNAQ / Fold change vs veh, GNAQ / RFU, CDK5R1 / Fold change vs veh, CDK5R1 / RFU, ZRANB3 / Fold change vs veh, ZRANB3 / RFU, CUL4A / Fold change vs veh, CUL4A / RFU, CCNY / Fold change vs veh, CCNY / RFU, UFL1 / Fold change vs veh, UFL1 / RFU, COG3 / Fold change vs veh, COG3 / RFU, DIAPH2 / Fold change vs veh, DIAPH2 / RFU, SKA2 / Fold change vs veh, SKA2 / RFU, AFF3 / Fold change vs veh, AFF3 / RFU, LMF1 / Fold change vs veh, LMF1 / RFU, IPO11 / Fold change vs veh, IPO11 / RFU, DFFB / Fold change vs veh, DFFB / RFU, FOXP1 / Fold change vs veh, FOXP1 / RFU, CARD8 / Fold change vs veh, CARD8 / RFU, STRN3 / Fold change vs veh, STRN3 / RFU, ADK / Fold change vs veh, ADK / RFU, RASSF2 / Fold change vs veh, RASSF2 / RFU, WIPF1 / Fold change vs veh, WIPF1 / RFU, LARP1B / Fold change vs veh, LARP1B / RFU, RASA1 / Fold change vs veh, RASA1 / RFU, RB1 / Fold change vs veh, RB1 / RFU, PPFIA1 / Fold change vs veh, PPFIA1 / RFU, MAT2A / Fold change vs veh, MAT2A / RFU, CCT5 / Fold change vs veh, CCT5 / RFU, WDR92 / Fold change vs veh, WDR92 / RFU, CUX1 / Fold change vs veh, CUX1 / RFU, TTC7A / Fold change vs veh, TTC7A / RFU, TMEM135 / Fold change vs veh, TMEM135 / RFU, DEPTOR / Fold change vs veh, DEPTOR / RFU, CPM / Fold change vs veh, CPM / RFU, DNAJB6 / Fold change vs veh, DNAJB6 / RFU, CACNA2D3 / Fold change vs veh, CACNA2D3 / RFU, DTX4 / Fold change vs veh, DTX4 / RFU, TFCP2 / Fold change vs veh, TFCP2 / RFU, GMCL1 /// GMCL1P1 / Fold change vs veh, GMCL1 /// GMCL1P1 / RFU, AEBP2 / Fold change vs veh, AEBP2 / RFU, SNHG1 /// SNORD22 /// SNORD25 /// SNORD26 /// SNORD27 /// SNORD28 /// SNORD29 /// SNORD31 / Fold change vs veh, SNHG1 /// SNORD22 /// SNORD25 /// SNORD26 /// SNORD27 /// SNORD28 /// SNORD29 /// SNORD31 / Fold change (Aza/veh), C12orf56 (ProbeSet 11735607_a_at) / Fold change (ACY-1035/veh), C12orf56 (ProbeSet 11735607_a_at) / Fold change (Aza/veh), FGFR1OP (ProbeSet 11751329_s_at) / Fold change (ACY-1035/veh), FGFR1OP (ProbeSet 11751329_s_at) / Fold change (Aza/veh), VPS36 (ProbeSet 11739960_a_at) / Fold change (ACY-1035/veh), VPS36 (ProbeSet 11739960_a_at) / RFU SYPL1 (11715823_x_at) / Fold change /veh SYPL1 (11715823_x_at) / RFU IGFBP7 (11715501_s_at) / Fold change /veh IGFBP7 (11715501_s_at) / RFU REEP3 (11722064_at) / Fold change /veh REEP3 (11722064_at) / RFU IGLL1 (11728026_x_at) / Fold change /veh IGLL1 (11728026_x_at): dose or concentration left out as unconfirmed.

Take `Nc1ccc(-c2cccs2)cc1NC(=O)c1ccc2c(c1)cc(C1CC1)n2CCN1CCOCC1` [ACY-1035]: the “RFU KRTAP5-7 /// NADSYN1 (11734609_at)” value turned out to be 11.39 RFU.
